From publication PMC11702208 (RSC Advances, 2025)
Where “and” joins values, the source holds several entries; their conditions need not be identical. Equal values may be shown once.

Legend:
[1] = tested on: SF-268; experiment: NCI cytotoxicity screen; assay type: cell-based, human; settings: 10.0 μM one dose
[2] = tested on: CAKI-1; experiment: NCI cytotoxicity screen; assay type: cell-based, human; settings: 10.0 μM one dose
[3] = tested on: U251; experiment: NCI cytotoxicity screen; assay type: cell-based, human; settings: 10.0 μM one dose; U-251
[4] = tested on: EKVX; experiment: NCI cytotoxicity screen; assay type: cell-based, human; settings: 10.0 μM one dose
[5] = tested on: NCI-H322M; experiment: NCI cytotoxicity screen; assay type: cell-based, human; settings: 10.0 μM one dose
[6] = tested on: UO-31; experiment: NCI cytotoxicity screen; assay type: cell-based, human; settings: 10.0 μM one dose
[7] = tested on: SNB-75; experiment: NCI cytotoxicity screen; assay type: cell-based, human; settings: 10.0 μM one dose
[8] = tested on: HOP-92; experiment: NCI cytotoxicity screen; assay type: cell-based, human; settings: 10.0 μM one dose
[9] = tested on: UACC-62; experiment: NCI cytotoxicity screen; assay type: cell-based, human; settings: 10.0 μM one dose
[10] = tested on: MDA-MB-231/ATCC; experiment: NCI cytotoxicity screen; assay type: cell-based, human; settings: 10.0 μM one dose; MDA-MB-231/ATCC
[11] = tested on: HS 578T; experiment: NCI cytotoxicity screen; assay type: cell-based, human; settings: 10.0 μM one dose; HS-578T
[12] = tested on: NCI-H522; experiment: NCI cytotoxicity screen; assay type: cell-based, human; settings: 10.0 μM one dose
[13] = tested on: MCF7; experiment: NCI cytotoxicity screen; assay type: cell-based, human; settings: 10.0 μM one dose; MCF-7
[14] = tested on: 59 cancer cell lines; experiment: NCI cytotoxicity screen, full panel; assay type: cell-based, human; settings: 10.0 μM one dose; 59 cell lines
[15] = biological target: CDK9 (Homo sapiens, UniProt P50750); experiment: biochemical; settings: IC50 CDK9 inhibition
CDK9, sequence (P50750 whole entry): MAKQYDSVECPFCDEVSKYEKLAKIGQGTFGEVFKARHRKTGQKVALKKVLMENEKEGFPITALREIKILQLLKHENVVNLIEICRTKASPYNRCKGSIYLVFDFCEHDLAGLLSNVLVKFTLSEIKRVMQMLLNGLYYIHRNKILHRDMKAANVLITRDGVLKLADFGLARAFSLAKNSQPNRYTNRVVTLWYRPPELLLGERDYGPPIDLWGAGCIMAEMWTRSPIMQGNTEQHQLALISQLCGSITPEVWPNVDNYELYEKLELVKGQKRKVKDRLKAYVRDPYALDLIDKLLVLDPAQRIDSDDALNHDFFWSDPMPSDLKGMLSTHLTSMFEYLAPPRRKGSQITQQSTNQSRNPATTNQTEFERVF
CDK9, sequence (O60563 whole entry partner): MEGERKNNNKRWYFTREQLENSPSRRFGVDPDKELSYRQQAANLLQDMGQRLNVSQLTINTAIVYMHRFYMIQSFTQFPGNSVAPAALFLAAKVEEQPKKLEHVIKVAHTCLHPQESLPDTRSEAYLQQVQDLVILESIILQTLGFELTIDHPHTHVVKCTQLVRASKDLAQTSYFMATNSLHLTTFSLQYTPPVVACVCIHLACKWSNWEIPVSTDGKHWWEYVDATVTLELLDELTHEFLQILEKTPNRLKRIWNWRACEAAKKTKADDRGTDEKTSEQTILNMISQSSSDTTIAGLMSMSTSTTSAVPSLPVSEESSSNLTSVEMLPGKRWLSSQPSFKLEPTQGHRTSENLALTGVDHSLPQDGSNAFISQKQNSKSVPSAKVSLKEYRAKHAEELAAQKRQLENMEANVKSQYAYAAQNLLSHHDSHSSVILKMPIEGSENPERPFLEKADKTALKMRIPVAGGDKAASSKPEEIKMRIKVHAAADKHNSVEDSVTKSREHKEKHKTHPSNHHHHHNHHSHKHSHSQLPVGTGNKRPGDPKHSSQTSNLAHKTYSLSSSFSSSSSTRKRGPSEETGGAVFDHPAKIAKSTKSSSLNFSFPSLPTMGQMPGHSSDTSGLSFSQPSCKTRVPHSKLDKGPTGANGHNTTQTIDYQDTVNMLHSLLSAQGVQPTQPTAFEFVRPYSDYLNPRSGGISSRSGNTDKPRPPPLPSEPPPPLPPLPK

[16] = biological target: HER2 (Homo sapiens, UniProt P04626); experiment: HER2 tyrosine kinase assay; assay type: biochemical; settings: IC50 HER2 inhibition
HER2, sequence (P04626 23-1255): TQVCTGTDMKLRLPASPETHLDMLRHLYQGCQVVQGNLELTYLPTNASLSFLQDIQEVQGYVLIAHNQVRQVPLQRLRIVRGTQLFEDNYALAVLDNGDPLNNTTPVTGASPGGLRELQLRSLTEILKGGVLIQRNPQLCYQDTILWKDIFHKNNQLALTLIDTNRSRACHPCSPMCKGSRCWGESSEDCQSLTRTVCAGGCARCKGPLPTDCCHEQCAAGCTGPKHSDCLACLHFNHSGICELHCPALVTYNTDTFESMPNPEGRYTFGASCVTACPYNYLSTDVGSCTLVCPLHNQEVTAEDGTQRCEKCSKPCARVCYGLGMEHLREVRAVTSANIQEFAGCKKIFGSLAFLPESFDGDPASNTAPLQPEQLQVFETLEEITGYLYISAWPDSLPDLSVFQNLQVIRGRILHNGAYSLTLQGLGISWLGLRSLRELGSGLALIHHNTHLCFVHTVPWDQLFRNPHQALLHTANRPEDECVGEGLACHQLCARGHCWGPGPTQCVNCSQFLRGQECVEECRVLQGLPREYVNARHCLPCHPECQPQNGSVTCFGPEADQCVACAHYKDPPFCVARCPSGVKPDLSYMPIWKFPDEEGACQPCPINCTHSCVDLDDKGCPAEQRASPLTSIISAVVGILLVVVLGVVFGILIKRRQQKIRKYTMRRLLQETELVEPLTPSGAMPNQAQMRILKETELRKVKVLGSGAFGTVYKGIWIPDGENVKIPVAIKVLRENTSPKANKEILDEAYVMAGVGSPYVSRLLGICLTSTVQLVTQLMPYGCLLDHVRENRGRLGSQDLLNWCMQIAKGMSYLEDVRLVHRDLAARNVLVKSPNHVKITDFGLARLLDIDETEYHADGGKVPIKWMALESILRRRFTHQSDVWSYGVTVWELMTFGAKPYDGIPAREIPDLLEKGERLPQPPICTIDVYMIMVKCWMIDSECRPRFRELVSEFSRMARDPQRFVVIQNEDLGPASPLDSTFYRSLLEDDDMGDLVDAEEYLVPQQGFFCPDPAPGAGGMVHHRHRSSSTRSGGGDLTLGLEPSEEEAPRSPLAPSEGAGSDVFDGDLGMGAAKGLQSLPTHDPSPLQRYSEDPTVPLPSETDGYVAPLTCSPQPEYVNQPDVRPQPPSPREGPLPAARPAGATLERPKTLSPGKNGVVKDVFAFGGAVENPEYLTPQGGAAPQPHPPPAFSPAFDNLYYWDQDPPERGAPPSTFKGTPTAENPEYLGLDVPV

[17] = biological target: EGFR (Homo sapiens, UniProt P00533); experiment: biochemical; settings: IC50 EGFR inhibition
EGFR, sequence (P00533 25-1210): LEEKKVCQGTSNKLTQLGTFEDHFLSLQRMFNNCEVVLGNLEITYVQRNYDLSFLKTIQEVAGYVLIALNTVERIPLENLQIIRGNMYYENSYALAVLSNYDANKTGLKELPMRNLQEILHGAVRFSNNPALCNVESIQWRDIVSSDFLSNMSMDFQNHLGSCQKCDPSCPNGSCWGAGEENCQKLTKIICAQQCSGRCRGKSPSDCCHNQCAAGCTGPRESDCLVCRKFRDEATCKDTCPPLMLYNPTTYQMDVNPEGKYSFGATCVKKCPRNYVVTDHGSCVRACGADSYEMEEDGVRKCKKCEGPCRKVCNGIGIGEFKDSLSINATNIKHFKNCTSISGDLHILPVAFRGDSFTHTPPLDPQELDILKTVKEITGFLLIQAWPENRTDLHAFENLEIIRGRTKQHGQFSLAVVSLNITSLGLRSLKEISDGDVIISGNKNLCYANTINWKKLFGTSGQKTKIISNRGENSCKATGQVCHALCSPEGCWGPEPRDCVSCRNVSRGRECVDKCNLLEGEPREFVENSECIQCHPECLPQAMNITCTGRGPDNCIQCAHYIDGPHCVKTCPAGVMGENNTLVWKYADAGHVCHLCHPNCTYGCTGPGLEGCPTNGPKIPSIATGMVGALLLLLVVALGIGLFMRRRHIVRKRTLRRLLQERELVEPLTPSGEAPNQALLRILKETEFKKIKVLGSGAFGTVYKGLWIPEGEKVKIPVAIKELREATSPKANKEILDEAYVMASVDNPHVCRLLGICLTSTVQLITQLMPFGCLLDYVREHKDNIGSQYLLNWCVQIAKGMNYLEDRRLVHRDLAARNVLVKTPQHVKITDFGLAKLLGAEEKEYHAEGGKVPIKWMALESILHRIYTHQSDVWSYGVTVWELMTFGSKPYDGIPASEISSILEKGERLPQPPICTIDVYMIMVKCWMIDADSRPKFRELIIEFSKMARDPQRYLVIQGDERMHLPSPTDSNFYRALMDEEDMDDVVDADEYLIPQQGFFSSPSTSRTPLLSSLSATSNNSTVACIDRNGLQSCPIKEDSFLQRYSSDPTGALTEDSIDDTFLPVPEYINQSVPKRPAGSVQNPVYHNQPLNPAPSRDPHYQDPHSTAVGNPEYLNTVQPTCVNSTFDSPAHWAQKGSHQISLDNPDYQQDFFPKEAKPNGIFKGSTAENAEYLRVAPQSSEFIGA

[18] = biological target: T1, COX-2 (Ovis aries, UniProt P79208); experiment: Colorimetric COX; assay type: biochemical, ovine
T1 sequence (P79208 17-603): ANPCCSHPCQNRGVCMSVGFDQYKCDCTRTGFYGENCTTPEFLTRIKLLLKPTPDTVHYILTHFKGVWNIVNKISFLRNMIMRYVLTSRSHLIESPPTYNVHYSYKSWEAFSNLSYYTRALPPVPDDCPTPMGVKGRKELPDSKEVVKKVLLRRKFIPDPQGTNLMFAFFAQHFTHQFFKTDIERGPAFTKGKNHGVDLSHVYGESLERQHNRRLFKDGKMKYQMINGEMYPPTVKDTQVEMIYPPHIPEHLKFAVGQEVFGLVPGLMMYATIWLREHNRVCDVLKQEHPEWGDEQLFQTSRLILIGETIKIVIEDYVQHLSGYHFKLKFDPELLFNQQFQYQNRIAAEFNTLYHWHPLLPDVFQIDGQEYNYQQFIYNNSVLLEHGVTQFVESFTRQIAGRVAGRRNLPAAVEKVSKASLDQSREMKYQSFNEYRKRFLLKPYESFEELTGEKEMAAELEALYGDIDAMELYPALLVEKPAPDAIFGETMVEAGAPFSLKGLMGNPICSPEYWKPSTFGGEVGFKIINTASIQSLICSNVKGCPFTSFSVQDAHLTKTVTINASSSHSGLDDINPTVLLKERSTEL

[19] = tested on: SN12C; experiment: NCI cytotoxicity screen; assay type: cell-based, human; settings: 10.0 μM one dose; SN-12C
[20] = tested on: RPMI-8226; experiment: NCI cytotoxicity screen; assay type: cell-based, human; settings: 10.0 μM one dose
[21] = tested on: RXF 393; experiment: NCI cytotoxicity screen; assay type: cell-based, human; settings: 10.0 μM one dose
[22] = tested on: NCI-H226; experiment: NCI cytotoxicity screen; assay type: cell-based, human; settings: 10.0 μM one dose
[23] = tested on: MDA-MB-468; experiment: NCI cytotoxicity screen; assay type: cell-based, human; settings: 10.0 μM one dose
[24] = tested on: SF-539; experiment: NCI cytotoxicity screen; assay type: cell-based, human; settings: 10.0 μM one dose
[25] = tested on: OVCAR-5; experiment: NCI cytotoxicity screen; assay type: cell-based, human; settings: 10.0 μM one dose; OVCAR-5
[26] = tested on: HCT-116; experiment: NCI cytotoxicity screen; assay type: cell-based, human; settings: 10.0 μM one dose
[27] = tested on: T-47D; experiment: NCI cytotoxicity screen; assay type: cell-based, human; settings: 10.0 μM one dose; T-47D
[28] = tested on: SNB-19; experiment: NCI cytotoxicity screen; assay type: cell-based, human; settings: 10.0 μM one dose
[29] = tested on: SK-MEL-5; experiment: NCI cytotoxicity screen; assay type: cell-based, human; settings: 10.0 μM one dose
[30] = tested on: SR; experiment: NCI cytotoxicity screen; assay type: cell-based, human; settings: 10.0 μM one dose
[31] = tested on: M14; experiment: NCI cytotoxicity screen; assay type: cell-based, human; settings: 10.0 μM one dose
[32] = tested on: 786-0; experiment: NCI cytotoxicity screen; assay type: cell-based, human; settings: 10.0 μM one dose
[33] = tested on: NCI-H23; experiment: NCI cytotoxicity screen; assay type: cell-based, human; settings: 10.0 μM one dose
[34] = tested on: BT-549; experiment: NCI cytotoxicity screen; assay type: cell-based, human; settings: 10.0 μM one dose
[35] = tested on: LOX IMVI; experiment: NCI cytotoxicity screen; assay type: cell-based, human; settings: 10.0 μM one dose
[36] = tested on: MDA-MB-435; experiment: NCI cytotoxicity screen; assay type: cell-based, human; settings: 10.0 μM one dose
[37] = tested on: KM12; experiment: NCI cytotoxicity screen; assay type: cell-based, human; settings: 10.0 μM one dose; KM-12
[38] = tested on: MALME-3M; experiment: NCI cytotoxicity screen; assay type: cell-based, human; settings: 10.0 μM one dose; MALME-3M

| Compound | GI % [1] [%] | GI % [2] [%] | GI % [3] [%] | GI % [4] [%] | GI % [6] [%] | GI % [7] [%] | GI % [10] [%] | GI % [11] [%] | GI % [12] [%] | GI % [13] [%] | MG% (mean growth percent) [14] | GI % [21] [%] | GI % [23] [%] | GI % [24] [%] | GI % [27] [%] | other results |
| --- | --- | --- | --- | --- | --- | --- | --- | --- | --- | --- | --- | --- | --- | --- | --- | --- |
| 4-((4-Oxo-2-((2-oxo-2-(2-(1-(p-tolyl)ethylidene)hydrazineyl)ethyl)thio)quinazolin-3(4H)-yl)methyl)benzenesulfonamide [Compound 10] | 14 | 16 | 15 | 10 | 20 | – | – | – | – | – | – | – | – | – | – | GI % [5]: 14% |
| NS(=O)(=O)c1ccc(Cn2c(=S)[nH]c3ccccc3c2=O)cc1 [Compound 1, 4-((4-Oxo-2-thioxo-1,4-dihydroquinazolin-3(2H)-yl)methyl)benzenesulfonamide] | – | 11 | – | – | 19 | 23 | – | – | – | – | – | – | – | – | – | GI % [8]: 14% |
| CCOC(=O)CSc1nc2ccccc2c(=O)n1Cc1ccc(S(N)(=O)=O)cc1 [Compound 2, Ethyl 2-((4-oxo-3-(4-sulfamoylbenzyl)-3,4-dihydroquinazolin-2-yl)thio)acetate] | – | – | – | – | 16 | 15 | – | – | – | – | – | – | – | – | – | – |
| NS(=O)(=O)c1ccc(Cn2c(SCC(=O)NN=Cc3ccccc3)nc3ccccc3c2=O)cc1 [Compound 4, 4-((2-((2-(2-Benzylidenehydrazineyl)-2-oxoethyl)thio)-4-oxoquinazolin-3(4H)-yl)methyl)benzenesulfonamide] | – | 16 | – | 14 | 21 | 13 | 12 | 11 | 18 | 14 | – | – | – | – | – | GI % [9]: 11% |
| COc1cccc(C=NNC(=O)CSc2nc3ccccc3c(=O)n2Cc2ccc(S(N)(=O)=O)cc2)c1 [Compound 7, 4-((2-((2-(2-(3-Methoxybenzylidene)hydrazineyl)-2-oxoethyl)thio)-4-oxoquinazolin-3(4H)-yl)methyl)benzenesulfonamide] | – | – | – | – | – | – | – | – | – | – | 89.4% and 89.35% | – | – | – | – | IC50 [15]: 0.155 ± 0.00381 µM; IC50 [16]: 0.387 µM; IC50 [17]: 0.594 ± 0.0145 µM; IC50 [18]: 50.5 ± 1.06 µM |
| COc1cc(C=NNC(=O)CSc2nc3ccccc3c(=O)n2Cc2ccc(S(N)(=O)=O)cc2)cc(OC)c1OC [Compound 8, 4-((4-Oxo-2-((2-oxo-2-(2-(3,4,5-trimethoxybenzylidene)hydrazineyl)ethyl)thio)quinazolin-3(4H)-yl)methyl)benzenesulfonamide] | 15 | 14 | – | 15 | 25 | – | 15 | 15 | 48 | 11 | 96.8% and 96.77% | 10 | 19 | 12 | – | GI % [19]: 10%; GI % [20]: 13%; GI % [22]: 11%; GI % [5]: 15% |
| COc1cccc(C(C)=NNC(=O)CSc2nc3ccccc3c(=O)n2Cc2ccc(S(N)(=O)=O)cc2)c1 [Compound 11, 4-((2-((2-(2-(1-(3-Methoxyphenyl)ethylidene)hydrazineyl)-2-oxoethyl)thio)-4-oxoquinazolin-3(4H)-yl)methyl)benzenesulfonamide] | 25 | 21 | 20 | – | 21 | 22 | 25 | 19 | 52 | 10 | 94.5% and 94.54% | 16 | 19 | 28 | 11 | GI % [25]: 12%; GI % [26]: 20%; GI % [28]: 15%; GI % [29]: 10% |
| COc1cc(OC)cc(C(C)=NNC(=O)CSc2nc3ccccc3c(=O)n2Cc2ccc(S(N)(=O)=O)cc2)c1 [Compound 12, 4-((2-((2-(2-(1-(3,5-Dimethoxyphenyl)ethylidene)hydrazineyl)-2-oxoethyl)thio)-4-oxoquinazolin-3(4H)-yl)methyl)benzenesulfonamide] | 64 | 16 | 26 | – | – | 39 | 28 | 11 | 62 | – | 88.4% | 30 | 27 | 64 | 62 | GI % [25]: 14%; GI % [26]: 17%; GI % [30]: 28%; GI % [31]: 11%; IC50 [15]: 0.32 ± 0.00785 µM; GI % [32]: 15%; GI % [9]: 17%; GI % [33]: 17%; GI % [34]: 57%; GI % [35]: 20%; IC50 [16]: 0.111 µM; IC50 [17]: 0.492 ± 0.0121 µM; GI % [36]: 30%; GI % [28]: 49%; IC50 [18]: 21.3 ± 0.44 µM; GI % [29]: 32%; GI % [37]: 30%; GI % [38]: 30% |
| COc1cc(C(C)=NNC(=O)CSc2nc3ccccc3c(=O)n2Cc2ccc(S(N)(=O)=O)cc2)cc(OC)c1OC [Compound 13, 4-((4-Oxo-2-((2-oxo-2-(2-(1-(3,4,5-trimethoxyphenyl)ethylidene)hydrazineyl)ethyl)thio)quinazolin-3(4H)-yl)methyl)benzenesulfonamide] | – | 15 | – | – | 24 | 13 | 11 | – | – | 11 | 97.44% | – | 16 | – | 15 | GI % [30]: 12% |
